Measured values as given in patent US9340574B2, “Inhibitors of protein tyrosine phosphatases” (Indiana University Research and Technology Corporation, priority 2012, dated 2016).

How the values were obtained:
[1] = system: 3T3-L1 differentiated adipocytes; experiment: Insulin signaling in 3T3-L1 differentiated adipocytes; type: cell-based; settings: 3T3-L1 adipocytes, 1 hour pretreatment before insulin
Procedure: Cell lysate (20 μg protein) was subjected to 10% SDS-PAGE and probed with phospho-Akt, phospho-IR (Y1162/1163) or Akt antibody, respectively. […] Cell lysate (20 μg protein) was subjected to 10% SDS-PAGE and probed with phospho-IR(Y1162/1163), phospho-Akt (pS473) or total Akt antibody, respectively. […] Cell lysate (20 μg protein) or insulin receptor immunoprecipitation beads were subjected to 10% SDS-PAGE and probed with phospho-Akt, Akt, insulin receptor beta or phospho-tyrosine antibody (4G10), respectively. The non-specific band from insulin receptor immunoprecipitates served as a loading control for insulin receptor and phospho-insulin receptor.
Western blot analysis. Cells were homogenized in the lysis buffer (50 mM Hepes, pH 7.5, 150 mM NaCl, 10% Glycerol, 1% Triton X-100, 1.5 mM MgCl2, 1 mM EGTA, 10 μM Sodium Pyrophosphate, 100 mM sodium fluoride and freshly added 100 μM sodium vanadate, 1 mM PMSF, 10 μg/ml Aprotinin, and 10 μg/mL Leupeptin). Protein extracts were resolved on an SDS-PAGE gel and transferred to nitrocellulose membrane. […] Protein signals were detected by incubation with HRP-conjugated secondary antibodies, followed by ECL detection reagent (Pierce). Western blots were scanned and quantified using the Quantity One software (Bio-Rad).

[2] = Pharmacokinetics in mouse plasma; type: in vivo; settings: for Cmax: mouse plasma
Procedure: Pharmacokinetic parameters for Compound 7. Compound 7 was quantified in mouse plasma using protein precipitation, internal standardization, and HPLC-MS/MS. Acetone was used to precipitate proteins and Compound 8 was the internal standard. Compound 7 and Compound 8 were separated using a C8 50×4.6 mm 5 um (Restek Ultra) HPLC column and a gradient mobile phase (acetonitrile:5 mM ammonium acetate). Compounds were detected using ESI in positive mode (Thermo Quantum Ultra; Thermo Fisher). The Q1/Q3 for Compound 7 and Compound 8 were 1087/300 and 957/231, respectively. The lower limit of quantification was 100 ng/mL using 20 μL of mouse plasma.
Pharmacokinetic parameters were estimated for Compound 7 after 5 mg/kg intravenous and 20 mg/kg intraperitoneal dosage, respectively. These parameters including area under the curve (AUC), area under the first moment curve (AUMC) and the elimination rate constant, kel, were estimated using noncompartmental methods with add-ins on Excel®. The maximum plasma concentration (Cmax) was obtained from the data. For the intravenous injection, the Cmax was estimated by extrapolating the data to zero time. The terminal half-life, t1/2, was estimated with 0.693/kel. The AUC from the last concentration, Clast, to infinity was estimated by Clast/kel. The systemic clearance (Cl or Cl/F) was calculated with dose/AUC0-∞ and the volume of distribution at steady state (Vdss or Vdss/F) was calculated using the Cl and the mean residence time (MRT; MRT=(Dose/AUC)×(AUMC/AUC)). The bioavailability (F) was estimated by comparing the Cl of intravenous and intraperitoneal injections.

[3] = mouse, 20 mg/Kg intraperitoneal injection
[4] = plasma, mouse, 5 mg/Kg intravenous injection

With `COc1cc(CC(=O)NCC(NC(=O)C(CCCNC(=O)c2cccc(I)c2)NC(=O)C(Cc2ccc(C(F)(F)P(=O)(O)O)cc2)NC(=O)c2ccc(C)c(Br)c2)C(N)=O)ccc1O` (stereo not shown) [Compound 7] the “insulin signaling (phospho-Akt, phospho-IR)” value [1] was “augmented insulin signaling”, the Cmax ([2]; ip, 20 mg/Kg intraperitoneal injection) was 4.5 µM and the Cmax ([2]; 5 mg/Kg intravenous injection, extrapolated to zero time) was 25.7 µM. It also gave a Cl/F [2, 3] of 0.047 L/h, a t1/2 [2, 3] of 1.8 h and a half-life ([2]; plasma, ip, mouse, 20 mg/Kg intraperitoneal injection) of 1.8 h. It also gave a Vd/F ([2]; plasma, ip, mouse, 20 mg/Kg intraperitoneal injection, read-out: Vdss/F) of 0.08 L, a clearance [2, 4] of 0.233 mL/min and a half-life [2, 4] of 0.8 h. For the same compound, the Vd ([2]; plasma, mouse, 5 mg/Kg intravenous injection, read-out: Vdss) was 0.007 L.
